Some test systems named below: OVCAR-8 ovarian; PC-3 prostate; SK-OV-3 ovarian; MDA-MB-435; HCC-2998 colon; UACC-62 melanoma; NCI/ADR-RES ovarian; SN12C renal; 786-0 renal; OVCAR-4 ovarian; RXF 393 renal; TK-10 renal; NCI-H226 lung; MALME-3M melanoma; HL-60(TB) leukemia; SK-MEL-2 melanoma.
Holding throughout (assay): NCI anticancer screen, dose series, 48 h

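Step 1: Grow cells in 96-well plates. Step 2: Expose to compound for 48 hours at 5 concentrations. Step 3: Interpolate endpoints linearly; if unreached, use highest concentration. GI50: concentration for 50% inhibition of growth. TGI marks complete inhibition of growth.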

With `Cc1c(Cl)c(S(N)(=O)=O)cc2c1NC=NS2(=O)=O`, the TGI in the experiment with OVCAR-8 ovarian, with PC-3 prostate, in the experiment with SK-OV-3 ovarian, with MDA-MB-435, in the experiment with HCC-2998 colon and with UACC-62 melanoma was greater than 100 µM in each case. The TGI in the experiment on NCI/ADR-RES ovarian, in the experiment on SN12C renal, in the experiment on 786-0 renal, with OVCAR-4 ovarian, in the experiment with RXF 393 renal and in the experiment on TK-10 renal was greater than 100 µM throughout. Further, the TGI with NCI-H226 lung and in the experiment on MALME-3M melanoma was greater than 100 µM each time.
For `CC(C)(C)NCC(O)c1ccc(O)c(CO)n1` (stereo unspecified), the TGI with OVCAR-8 ovarian, in the experiment on PC-3 prostate, with SK-OV-3 ovarian, in the experiment with MDA-MB-435, with HCC-2998 colon and in the experiment with UACC-62 melanoma was greater than 100 µM throughout. The TGI in the experiment with NCI/ADR-RES ovarian, with HL-60(TB) leukemia, in the experiment on SN12C renal, in the experiment with SK-MEL-2 melanoma, in the experiment with 786-0 renal and with OVCAR-4 ovarian was greater than 100 µM each time. The TGI with RXF 393 renal, with TK-10 renal and with NCI-H226 lung was greater than 100 µM each time.
For the compound `CC(=O)c1cccc(Nc2nc3ccc(Cl)cc3c3[nH]c4ccccc4c23)c1`, the TGI with OVCAR-8 ovarian was 32.7 µM; in the experiment on PC-3 prostate it was 30.9 µM; in the experiment with SK-OV-3 ovarian, 15.9 µM; with MDA-MB-435, greater than 100 µM; in the experiment on HCC-2998 colon, greater than 100 µM; in the experiment with UACC-62 melanoma it was 24.4 µM. Also, the TGI is 79.5 µM in the experiment on NCI/ADR-RES ovarian; greater than 100 µM in the experiment with HL-60(TB) leukemia; greater than 90.8 µM in the experiment on SN12C renal; 30.8 µM in the experiment with SK-MEL-2 melanoma; 11.3 µM in the experiment with 786-0 renal; 21.5 µM in the experiment on OVCAR-4 ovarian. Besides, the TGI is 25.8 µM in the experiment with TK-10 renal, 67.1 µM with NCI-H226 lung and greater than 100 µM with MALME-3M melanoma. The GI50 is 14.2 µM in the experiment with HCC-2998 colon, greater than 100 µM in the experiment with HL-60(TB) leukemia, 3.56 µM in the experiment on OVCAR-4 ovarian and 10.4 µM in the experiment on NCI-H226 lung.
With `Oc1ccc(Cc2nccc3cc(O)c(O)cc23)cc1O`, the TGI with OVCAR-8 ovarian, in the experiment with PC-3 prostate, in the experiment on SK-OV-3 ovarian, in the experiment on MDA-MB-435, in the experiment on UACC-62 melanoma and in the experiment with NCI/ADR-RES ovarian was greater than 100 µM throughout. Moreover, the TGI with HL-60(TB) leukemia, in the experiment with SN12C renal, in the experiment on SK-MEL-2 melanoma, in the experiment on 786-0 renal, with OVCAR-4 ovarian and in the experiment with RXF 393 renal was greater than 100 µM in each case. For the same compound, the TGI in the experiment with TK-10 renal, with NCI-H226 lung and with MALME-3M melanoma was greater than 100 µM throughout.
As to `C/C(=N\NC(=S)N1CCN(C)CC1)c1nc2ncccc2[nH]1`, the TGI in the experiment with OVCAR-8 ovarian, with PC-3 prostate, with SK-OV-3 ovarian, in the experiment with MDA-MB-435, in the experiment on HCC-2998 colon and with UACC-62 melanoma was greater than 100 µM in each case. Further, the TGI with NCI/ADR-RES ovarian, in the experiment on HL-60(TB) leukemia, in the experiment on SN12C renal, with 786-0 renal, in the experiment with OVCAR-4 ovarian and in the experiment with TK-10 renal was greater than 100 µM in each case. In addition, the TGI in the experiment with NCI-H226 lung and in the experiment with MALME-3M melanoma was greater than 100 µM each time.
As to `CC(C)(C)C(=O)CP(=O)(O)O`, the TGI in the experiment with OVCAR-8 ovarian, with PC-3 prostate, in the experiment on SK-OV-3 ovarian, in the experiment with MDA-MB-435, in the experiment on UACC-62 melanoma and with NCI/ADR-RES ovarian was greater than 100 µM throughout. For the same compound, the TGI in the experiment with HL-60(TB) leukemia, in the experiment on SN12C renal, with SK-MEL-2 melanoma, in the experiment on 786-0 renal, in the experiment with OVCAR-4 ovarian and in the experiment on RXF 393 renal was greater than 100 µM in each case. Moreover, the TGI in the experiment on TK-10 renal, with NCI-H226 lung and with MALME-3M melanoma was greater than 100 µM in each case.
Consider `C[N+]1(Cc2ccc(Cl)c(Cl)c2)CCCC1C1CCCN(Cc2ccc(Cl)c(Cl)c2)C1` (stereo unspecified), for which the TGI in the experiment with OVCAR-8 ovarian, in the experiment on PC-3 prostate, in the experiment on SK-OV-3 ovarian, in the experiment on MDA-MB-435, with HCC-2998 colon and with UACC-62 melanoma was greater than 100 µM in each case. Moreover, the TGI in the experiment with NCI/ADR-RES ovarian, in the experiment with SN12C renal, in the experiment on SK-MEL-2 melanoma, with 786-0 renal, in the experiment on OVCAR-4 ovarian and in the experiment on RXF 393 renal was greater than 100 µM in each case. Also, the TGI in the experiment on TK-10 renal and in the experiment on MALME-3M melanoma was greater than 100 µM throughout.
Take `C/C=C(\C)C(=O)OC1C(C)=C2C(C1OC(=O)CCCC)C(C)(OC(C)=O)CC(OC(=O)CCCC)C1(O)C2OC(=O)C1(C)O` (stereo unspecified): the TGI in the experiment with OVCAR-8 ovarian was greater than 100 µM; in the experiment with PC-3 prostate, greater than 37.5 µM; in the experiment on SK-OV-3 ovarian, greater than 100 µM; in the experiment with MDA-MB-435 it was greater than 100 µM; in the experiment with HCC-2998 colon it was greater than 100 µM; in the experiment on UACC-62 melanoma it was 13.2 µM. The TGI in the experiment with NCI/ADR-RES ovarian was greater than 100 µM; in the experiment on HL-60(TB) leukemia it was greater than 100 µM; in the experiment with SN12C renal it was greater than 100 µM; with SK-MEL-2 melanoma it was 3.96 µM; in the experiment on 786-0 renal, greater than 60.1 µM; in the experiment on OVCAR-4 ovarian it was greater than 100 µM. Moreover, the TGI with RXF 393 renal was greater than 100 µM; with TK-10 renal it was greater than 100 µM; in the experiment with NCI-H226 lung it was greater than 25.8 µM.
For the compound `Nc1ccc(CCSSCCc2ccc(N)cc2)cc1`, the TGI in the experiment with OVCAR-8 ovarian is greater than 88.2 µM; in the experiment on PC-3 prostate it was greater than 78.9 µM; in the experiment with SK-OV-3 ovarian, greater than 100 µM; with MDA-MB-435, greater than 86.9 µM; with HCC-2998 colon it was 34.4 µM; in the experiment on UACC-62 melanoma it was 89.1 µM. Also, the TGI was greater than 74.4 µM in the experiment on NCI/ADR-RES ovarian; 60.1 µM in the experiment on SN12C renal; 43.4 µM in the experiment on SK-MEL-2 melanoma; 36.6 µM in the experiment with 786-0 renal; greater than 100 µM with OVCAR-4 ovarian; 44.6 µM in the experiment on RXF 393 renal. Moreover, the results for the TGI in the experiment on TK-10 renal, with NCI-H226 lung and in the experiment on MALME-3M melanoma were greater than 100 µM, greater than 100 µM and 41.6 µM, respectively.

Values taken from PubChem BioAssay (NCI).
